Test results from patent publication US8163921B2, “Hepatitis C virus inhibitors” (Bristol-Myers Squibb Company, priority 2008, dated 2012).

Columns and labels:
[1] = target: T1, HCV NS3/4A protease complex, H77 strain (Hepatitis C virus genotype 1a, UniProt P27958, C1454S/C1711G); experiment: FRET peptide assay to monitor HCV NS3/4A proteolytic activity (H77 strain); type: biochemical, HCV genotype 1a; conditions: read-out: IC50, H177 strain
T1 construct: DNA encoding the recombinant HCV NS3/4A protease complex (amino acids 1027 to 1711) for these strains; inferred from Ni-NTA purification and the pET21b vector; made in house; host or cells: Escherichia coli BL21 (DE3)
T1 sequence (P27958 1027-1711 C1454S/C1711G, one chain of several): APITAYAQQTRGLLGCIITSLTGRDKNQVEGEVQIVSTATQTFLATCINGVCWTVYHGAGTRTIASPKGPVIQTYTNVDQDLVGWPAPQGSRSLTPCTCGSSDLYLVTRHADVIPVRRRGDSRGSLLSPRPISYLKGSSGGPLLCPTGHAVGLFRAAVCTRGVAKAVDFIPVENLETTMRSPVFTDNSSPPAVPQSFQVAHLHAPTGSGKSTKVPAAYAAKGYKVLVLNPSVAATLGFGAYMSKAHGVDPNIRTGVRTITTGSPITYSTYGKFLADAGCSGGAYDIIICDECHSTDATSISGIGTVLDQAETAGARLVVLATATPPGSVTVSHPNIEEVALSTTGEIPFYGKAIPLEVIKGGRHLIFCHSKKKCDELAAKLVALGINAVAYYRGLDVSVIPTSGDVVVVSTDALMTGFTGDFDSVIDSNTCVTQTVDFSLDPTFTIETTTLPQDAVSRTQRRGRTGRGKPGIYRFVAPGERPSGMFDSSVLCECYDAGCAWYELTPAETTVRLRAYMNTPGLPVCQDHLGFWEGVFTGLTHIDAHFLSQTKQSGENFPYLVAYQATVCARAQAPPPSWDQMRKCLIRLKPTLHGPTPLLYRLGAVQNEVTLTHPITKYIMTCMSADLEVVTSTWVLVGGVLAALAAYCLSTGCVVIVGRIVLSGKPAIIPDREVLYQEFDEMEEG
From the text: (§1) HCV NS3 protease complexes, derived from the BMS strain, H77 strain or J4L6S strain, were generated, as described below. These purified recombinant proteins were generated for use in a homogeneous assay (see below) to provide an indication of how effective compounds of the present disclosure would be in inhibiting HCV NS3 proteolytic activity.
(§2) Serum from an HCV-infected patient was obtained from Dr. T. Wright, San Francisco Hospital. An engineered full-length cDNA (compliment deoxyribonucleic acid) template of the HCV genome (BMS strain) was constructed from DNA fragments obtained by reverse transcription-PCR (RT-PCR) of serum RNA (ribonucleic acid) and using primers selected on the basis of homology between other genotype 1a strains. From the determination of the entire genome sequence, a genotype 1a was assigned to the HCV isolate according to the classification of Simmonds et al. (See P Simmonds, K A Rose, S Graham, S W Chan, F McOmish, B C Dow, E A Follett, P L Yap and H Marsden, J. Clin. Microbiol., 31(6), 1493-1503 (1993)). […]

[2] = target: T2, HCV NS3/4A protease complex, J4L6S strain (Hepatitis C virus genotype 1b, UniProt O92972, C1454S/C1711G); experiment: FRET peptide assay to monitor HCV NS3/4A proteolytic activity (J4L6S strain); type: biochemical, HCV genotype 1b; conditions: published J4L6S strain
T2 construct: DNA encoding the recombinant HCV NS3/4A protease complex (amino acids 1027 to 1711) for these strains; inferred from Ni-NTA purification and the pET21b vector; made in house; host or cells: Escherichia coli BL21 (DE3)
T2 sequence (O92972 1027-1711 C1454S/C1711G, one chain of several): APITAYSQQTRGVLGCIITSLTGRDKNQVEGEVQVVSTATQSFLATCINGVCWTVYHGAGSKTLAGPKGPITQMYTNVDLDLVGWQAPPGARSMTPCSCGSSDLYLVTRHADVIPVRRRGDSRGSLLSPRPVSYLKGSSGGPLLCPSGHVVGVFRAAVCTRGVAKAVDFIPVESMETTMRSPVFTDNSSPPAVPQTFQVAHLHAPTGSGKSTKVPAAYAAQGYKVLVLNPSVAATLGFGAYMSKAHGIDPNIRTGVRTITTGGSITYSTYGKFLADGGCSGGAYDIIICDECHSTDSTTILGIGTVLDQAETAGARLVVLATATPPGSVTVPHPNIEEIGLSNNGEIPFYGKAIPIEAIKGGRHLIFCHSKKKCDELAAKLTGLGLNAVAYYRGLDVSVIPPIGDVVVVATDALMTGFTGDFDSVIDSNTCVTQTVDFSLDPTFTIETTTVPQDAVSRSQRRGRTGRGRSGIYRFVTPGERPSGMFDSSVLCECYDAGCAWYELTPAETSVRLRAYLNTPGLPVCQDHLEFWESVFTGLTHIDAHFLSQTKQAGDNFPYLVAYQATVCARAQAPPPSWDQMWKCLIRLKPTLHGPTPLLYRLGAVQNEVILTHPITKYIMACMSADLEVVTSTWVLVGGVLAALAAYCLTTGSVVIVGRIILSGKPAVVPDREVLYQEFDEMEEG
From the text: as §1, §2

## C=C[C@@H]1C[C@]1(NC(=O)[C@@H]1C[C@@H](Oc2ncc(OC)c3ccc(Cl)cc23)CN1C(=O)[C@@H](Nc1nc(-c2cccc(OC(F)(F)F)c2)cs1)C(C)(C)C)C(=O)NS(=O)(=O)C1CC1 [Example 68]
[1]
  IC50: 1.9 nM
[2]
  IC50: 0.9 nM
